Test results: publication PMC6332220, “Synthesis, Characterization and Biological Evaluation of Some Quinoxaline Derivatives: A Promising and Potent New Class of Antitumor and Antimicrobial Agents” (Molecules, 2015)
Converted amounts (≈) assume the structure as drawn.

Key:
[1] = test system: MCF-7 (breast adenocarcinoma); assay: In vitro cytotoxicity, SRB cell growth assay, MCF-7
Description: (§1) The in vitro cytotoxic activity of the newly synthesized compounds against human breast cell line (MCF7), non-small cell lung cancer NCIH460, CNS cancer SF-268 and WI 38 (normal fibroblast cells) were evaluated using doxorubicin as the reference drug according to the method reported by Skehan et al..
(§2) The newly synthesized compounds were evaluated in vitro against three human cancer cell lines; which are MCF-7 (breast adenocarcinoma), NCI-H460 (non-small cell lung cancer) and SF-268 (CNS cancer), and WI 38 (normal fibroblast cells) were used in this study. MCF-7 was obtained from the European Collection of Cell Cultures (ECACC, Salisbury, UK) but NCI-H460, SF-268 and WI 38 were kindly provided by the National Cancer Institute (NCI, Cairo, Egypt). They grow as monolayer and routinely maintained RPMI-1640 medium supplemented with 5% heat inactivated fetal bovine serum (FBS), 2 mM glutamine and antibiotics (penicillin 100 U/mL, streptomycin 100 µg/mL), at 37 °C in a humidified atmosphere containing 5% CO2. Exponentially growing cells were obtained by plating 1.5 × 10^5 cells/mL for MCF-7 and SF-268, and 0.75 × 10^4 cells/mL for NCI-H460 followed by 24 h of incubation. The effect of the vehicle solvent (DMSO) on the growth of these cell lines was evaluated in all experiments by exposing untreated control cells to the maximum concentration (0.5%) of DMSO used in each assay.
(§3) The effect of compounds on the in vitro growth of human tumor cell lines were evaluated according to the procedure adopted by the National Cancer Institute ([…]) in the “In vitro Anticancer Drug Discovery Screen” that uses the protein-binding dye sulforhodamine B (SRB) to assess cell growth. In the assay protocol, all cells were incubated at 37 °C under humidified atmosphere containing 5% CO2. Briefly, exponentially cells growing in 96-well plates were then exposed for 48 h to five serial concentrations of each compound, starting from a maximum concentration of 150 μg/mL. Following this exposure period adherent cells were fixed, washed and stained. The bound stain was solubilized and the absorbance was measured at 492 nm in a plate reader (Bio-Tek Instruments Inc., Power wave XS, Winston, NC, USA). For each test compound and cell line, a dose response curve was obtained and the inhibitory concentration of 50% (IC50), corresponding to the concentration of the compounds that inhibited 50% of the net cell growth was calculated as described elsewhere. Doxorubicin was used as a positive control and tested in the same manner.

[2] = test system: NCI-H460 (non-small cell lung cancer); assay: In vitro cytotoxicity, SRB cell growth assay, NCI-H460
Description: as §1, §2, §3

[3] = test system: SF-268 (CNS cancer); assay: In vitro cytotoxicity, SRB cell growth assay, SF-268
Description: as §1, §2, §3

[4] = test system: WI 38 (normal fibroblast cells); assay: In vitro cytotoxicity, SRB cell growth assay, normal cells WI 38; type: cell-based, human; conditions: 48 h exposure, non-cytotoxic = IC50 >100 μg/mL
Description: as §1, §2, §3

[5] = test system: Bacillus subtilis; assay: Disk diffusion, Bacillus subtilis; type: cell-based; conditions: Gram positive, 8.0 mm disks, 10 μL
Description: (§4) The disk diffusion method was used for determination of the antimicrobial activity using ampicillin, gentamicin and amphotericin B as reference drugs. The results were recorded for each compounds as the average diameter as inhibition zones (IZ) of bacterial or fungal growth around the discs in mm as shown in Table 2.
(§5) Antimicrobial activities were carried out against highly pathogenic strains; three strains of Gram positive bacteria (Bacillus subtilis, Staphylococcus aureus and Streptococcus faecalis), four strains of Gram negative bacteria (Escherichia coli, Neisseria gonorrhoeae, Pseudomonas aeruginosa and Salmonella typhimurium) and three fungi strains (Aspergillus flavus, Aspergillus fumigatus and Candida albicans) isolated from primary agar plates. Antimicrobial activity of the tested samples was determined using a modified Kriby-Bauer disk diffusion method. Briefly, 100 µL of the test bacteria/fungi were grown in 10 mL of fresh media until they reached a count approximately 10^8 cells/mL for bacteria or 10^5 cells/mL for fungi. 100 µL of microbial suspension was spread onto agar plates corresponding to the broth in which they were maintained. The inoculated plates of bacterial strains were incubated at 35–37 °C for 24–48 h, while the inoculated plates of fungal strains such as A. flavus and A. fumigatus were incubated at 25 °C for 48 h and yeast as C. albicans was incubated at 30 °C for 24–48 h.
(§6) The agar disk diffusion (qualitative) method was used in this investigation for determination of the preliminary antibacterial and antifungal activities. The agar used was Mueller-Hinton agar plates that are rigorously tested for composition and pH. Further the depth of the agar in the plate is a factor to be considered in the disk diffusion method.
(§7) Reference drugs: ampicillin was used as a standard antibacterial drug for Gram positive bacteria, gentamicin as a standard antibacterial drug for Gram negative bacteria and amphotericin B as antifungal standard drug.
(§8) Bacterial and fungal strains were spread onto the surface of the agar plates using sterile cotton swabs. For evaluation of antibacterial activities, blank paper disks (Schleicher & Schuell, Alicante, Spain) with a diameter of 8.0 mm were saturated with 10 μL of tested concentration of the stock solutions. Disks were dried and then placed onto inoculated agar plates. The plates of bacterial strains were reincubated at 35–37 °C for 24–48 h, while the plates of fungal strains such as A. flavus and A. fumigatus were reincubated at 25 °C for 48 h and yeast as C. albicans was reincubated at 30 °C for 24–48 h as mentioned above. […] For an accurate analysis, tests were run in triplicate for each strain to avoid any error as described in Table 2.

[6] = test system: Staphylococcus aureus; assay: Disk diffusion, Staphylococcus aureus; type: cell-based; conditions: Gram positive, 8.0 mm disks, 10 μL
Description: as §4, §5, §6, §7, §8

[7] = test system: Streptococcus faecalis; assay: Disk diffusion, Streptococcus faecalis; type: cell-based; conditions: Gram positive, 8.0 mm disks, 10 μL
Description: as §4, §5, §6, §7, §8

[8] = test system: Escherichia coli; assay: Disk diffusion, Escherichia coli; type: cell-based; conditions: Gram negative, 8.0 mm disks, 10 μL
Description: as §4, §5, §6, §7, §8

[9] = test system: Neisseria gonorrhoeae; assay: Disk diffusion, Neisseria gonorrhoeae; type: cell-based; conditions: Gram negative, 8.0 mm disks, 10 μL
Description: as §4, §5, §6, §7, §8

[10] = test system: Pseudomonas aeruginosa; assay: Disk diffusion, Pseudomonas aeruginosa; type: cell-based; conditions: Gram negative, 8.0 mm disks, 10 μL
Description: as §4, §5, §6, §7, §8

[11] = test system: Salmonella typhimurium; assay: Disk diffusion, Salmonella typhimurium; type: cell-based; conditions: Gram negative, 8.0 mm disks, 10 μL
Description: as §4, §5, §6, §7, §8

[12] = test system: Aspergillus flavus; assay: Disk diffusion, Aspergillus flavus; type: cell-based; conditions: Fungi, 8.0 mm disks, 10 μL
Description: as §4, §5, §6, §7, §8
(§9) Disk diffusion method for filamentous fungi testing by using approved standard method (M02-A11) developed by the CLSI for evaluating the susceptibilities of filamentous fungi to antifungal agents. Disk diffusion method for yeasts developed by using approved standard method (M44-A2) by the CLSI [44]. Agar-based methods such as disk diffusion can be good alternatives because they are simpler and faster than broth-based methods.

[13] = test system: Aspergillus fumigatus; assay: Disk diffusion, Aspergillus fumigatus; type: cell-based; conditions: Fungi, 8.0 mm disks, 10 μL
Description: as §4, §5, §6, §7, §8, §9

[14] = test system: Candida albicans; assay: Disk diffusion, Candida albicans; type: cell-based; conditions: Fungi, 8.0 mm disks, 10 μL
Description: as §4, §5, §6, §7, §8, §9

[15] = test system: Bacillus subtilis; assay: MIC by broth dilution, Bacillus subtilis; type: cell-based; conditions: Gram positive, 0.98-125 µg/mL
Description: (§10) In this study, MIC (quantitative method) was used for evaluation of the antimicrobial activity of tested compounds. Screening was evaluated in vitro using the Broth dilution method according to CLSI [45]. All the bacteria were incubated and activated at 30 °C for 24 h inoculation into nutrient broth and the fungi were incubated in malt extract broth for 48 h. The compounds were dissolved in DMSO and then diluted using […] Mueller-Hinton broth. […] In each case triplicate tests were performed and the average was taken as the final reading. The tubes were then inoculated with the test organisms, grown in their suitable broth at 37 °C for 24 h for tested microorganisms (1 × 10^8 CFU/mL for bacteria and 1 × 10^6 CFU/mL of fungi), each 5 mL received 0.1 mL of the above inoculum and incubated at 37 °C for 24 h.

[16] = test system: Staphylococcus aureus; assay: MIC by broth dilution, Staphylococcus aureus; type: cell-based; conditions: Gram positive, 0.98-125 µg/mL
Description: as §10

[17] = test system: Streptococcus faecalis; assay: MIC by broth dilution, Streptococcus faecalis; type: cell-based; conditions: Gram positive, 0.98-125 µg/mL
Description: as §10

[18] = test system: Escherichia coli; assay: MIC by broth dilution, Escherichia coli; type: cell-based; conditions: Gram negative, 0.98-125 µg/mL
Description: as §10

[19] = test system: Pseudomonas aeruginosa; assay: MIC by broth dilution, Pseudomonas aeruginosa; type: cell-based; conditions: Gram negative, 0.98-125 µg/mL
Description: as §10

[20] = test system: Salmonella typhimurium; assay: MIC by broth dilution, Salmonella typhimurium; type: cell-based; conditions: Gram negative, 0.98-125 µg/mL
Description: as §10

Q: Which results are given for “9-Bromo-di-1,2,4-triazolo[1,5-a:5′,1′-c]quinoxaline [Compound 13]”?
A: IC50 (μg/mL) MCF-7 ([1]; MCF-7, SRB, 48 h exposure): 37.64 ± 6.72 µg/mL; IC50 (μg/mL) NCI-H460 ([2]; NCI-H460, SRB, 48 h exposure): 36.05 ± 5.23 µg/mL; IC50 (μg/mL) SF-268 ([3]; SF-268, SRB, 48 h exposure): 29.35 ± 7.01 µg/mL; IC50 (μg/mL) WI 38 [4]: 18.62 ± 1.21 µg/mL; Inhibition Zone Diameter (IZ) (mm) Bacillus subtilis [5]: 17 mm; Inhibition Zone Diameter (IZ) (mm) Staphylococcus aureus [6]: 16 mm; Inhibition Zone Diameter (IZ) (mm) Streptococcus faecalis [7]: 20 mm; Inhibition Zone Diameter (IZ) (mm) Escherichia coli [8]: 17 mm; Inhibition Zone Diameter (IZ) (mm) Neisseria gonorrhoeae [9]: R (R (IZ = 0 mm)); Inhibition Zone Diameter (IZ) (mm) Pseudomonas aeruginosa [10]: 19 mm; Inhibition Zone Diameter (IZ) (mm) Salmonella typhimurium [11]: 17 mm; Inhibition Zone Diameter (IZ) (mm) Aspergillus flavus [12]: R (R (IZ = 0 mm)); Inhibition Zone Diameter (IZ) (mm) Aspergillus fumigatus [13]: R (R (IZ = 0 mm)); Inhibition Zone Diameter (IZ) (mm) Candida albicans [14]: R (R (IZ = 0 mm)); Minimum Inhibitory Concentration (MIC) (µg/mL) Bacillus subtilis [15]: 1.95 µg/mL; Minimum Inhibitory Concentration (MIC) (µg/mL) Staphylococcus aureus [16]: 7.81 µg/mL; Minimum Inhibitory Concentration (MIC) (µg/mL) Streptococcus faecalis [17]: 62.5 µg/mL; Minimum Inhibitory Concentration (MIC) (µg/mL) Escherichia coli [18]: 7.81 µg/mL; Minimum Inhibitory Concentration (MIC) (µg/mL) Pseudomonas aeruginosa [19]: 125 µg/mL; Minimum Inhibitory Concentration (MIC) (µg/mL) Salmonella typhimurium [20]: 3.9 µg/mL

Q: With `NNc1nc2ccc(Br)cc2n2nnnc12` [Compound 10] as the compound, how does the MIC ([15]; Bacillus subtilis, 24 h, read-out: Minimum Inhibitory Concentration (MIC) (µg/mL) Bacillus subtilis) read?
A: 0.98 µg/mL (≈ 3.5 µM)

Q: And the MIC ([16]; Staphylococcus aureus, 24 h, read-out: Minimum Inhibitory Concentration (MIC) (µg/mL) Staphylococcus aureus)?
A: 0.98 µg/mL (≈ 3.5 µM)

Q: What about the MIC ([17]; Enterococcus faecalis, 24 h, read-out: Minimum Inhibitory Concentration (MIC) (µg/mL) Streptococcus faecalis) of the same compound?
A: 0.98 µg/mL (≈ 3.5 µM)

Q: And the MIC ([18]; Escherichia coli, 24 h, read-out: Minimum Inhibitory Concentration (MIC) (µg/mL) Escherichia coli)?
A: 3.9 µg/mL (≈ 13.9 µM)

Q: And the MIC ([19]; Pseudomonas aeruginosa, 24 h, read-out: Minimum Inhibitory Concentration (MIC) (µg/mL) Pseudomonas aeruginosa)?
A: 125 µg/mL (≈ 446 µM)

Q: And the MIC ([20]; Salmonella enterica, TYPHIMURIUM, 24 h, read-out: Minimum Inhibitory Concentration (MIC) (µg/mL) Salmonella typhimurium)?
A: 1.95 µg/mL (≈ 6.96 µM)

Q: Which IC50 ([1]; Homo sapiens, MCF7, 48 h, read-out: IC50 (μg/mL) MCF-7) does the source give for `CC1=NN(c2nc3ccc(Br)cc3nc2N2N=C(C)CC2=O)C(=O)C1` [Compound 17, 6-Bromo-2,3-bis(3-methyl-1H-pyrazol-5(4H)-one)quinoxaline] here?
A: 21.23 ± 0.14 µg/mL (≈ 52.9 µM)

Q: What about the IC50 ([2]; Homo sapiens, NCI-H460, 48 h, read-out: IC50 (μg/mL) NCI-H460) of the same compound?
A: 15.81 ± 0.1 µg/mL (≈ 39.4 µM)

Q: And the IC50 ([3]; Homo sapiens, SF-268, 48 h, read-out: IC50 (μg/mL) SF-268)?
A: 21.3 ± 2.12 µg/mL (≈ 53.2 µM)

Q: What about the IC50 ([4]; Homo sapiens, WI-38, 48 h) of the same compound?
A: 21.4 ± 2.02 µg/mL (≈ 53.3 µM)

Q: And the “Inhibition Zone Diameter (IZ) (mm) Bacillus subtilis” value [5]?
A: 7 mm

Q: What about the “Inhibition Zone Diameter (IZ) (mm) Staphylococcus aureus” value [6] of the same compound?
A: 8 mm

Q: What about the “Inhibition Zone Diameter (IZ) (mm) Streptococcus faecalis” value [7] of the same compound?
A: 10 mm

Q: What about the “Inhibition Zone Diameter (IZ) (mm) Escherichia coli” value [8] of the same compound?
A: 11 mm

Q: What about the “Inhibition Zone Diameter (IZ) (mm) Neisseria gonorrhoeae” value [9] of the same compound?
A: 6 mm

Q: What about the “Inhibition Zone Diameter (IZ) (mm) Pseudomonas aeruginosa” value [10] of the same compound?
A: 8 mm

Q: What about the “Inhibition Zone Diameter (IZ) (mm) Salmonella typhimurium” value [11] of the same compound?
A: 5 mm

Q: What about the “Inhibition Zone Diameter (IZ) (mm) Aspergillus flavus” value [12] of the same compound?
A: R (R (IZ = 0 mm))

Q: What about the “Inhibition Zone Diameter (IZ) (mm) Aspergillus fumigatus” value [13] of the same compound?
A: R (R (IZ = 0 mm))

Q: What about the “Inhibition Zone Diameter (IZ) (mm) Candida albicans” value [14] of the same compound?
A: R (R (IZ = 0 mm))

Q: And the melting point?
A: 152 to 154 °C
